What was measured:
[1] = test system: HeLa cells; assay: Luciferase assay for transfection efficiency in HeLa cells; format: cell-based; details: LNPs containing the conjugate
Protocol: HeLa cells were cultured in DMEM high glucose with Glutamax (Gibco—Thermo Fisher #61965-059) supplemented with 10% of Fetal Bovine Serum (Hyclone #SV30160.03HI, provided by GE Healthcare Europe GmbH) and 1% penicillin/streptomycin. Transfections were carried out on 96-well plates containing 10000 cells/well in a final volume of 100 μl, and cells were incubated 24 hours at 37° C. and 5% CO2. After 24 h from cell seeding, the medium was removed and refreshed with 90 μl of complete medium. 10 μl of each LNPs formulation were added to the cells. In the case of positive control (Lipofectamine™ 2000 Transfection Reagent, Invitrogen™), manufacturer guidelines were followed. After 24 hours cells were recovered and processed.
After 24 h post-incubation with the LNPs formulation, 100 μl of BrightGlo reagent (Promega #E2620) was added in each well following manufacturer instructions. After 5 minutes of incubation at room temperature luciferase activity was measured using VictorNivo (PerkinElmer). Data was represented as luminescence relative to the percentage of transfection relative to the positive control of transfection.
The transfection data is represented as % of the positive control Lipofectamine™ 2000 being the positive control 100% after 24 h of treatment and cell viability is compared to non-treated (NT) cells, being the ATP content readout of NT (non-treated) cells equal to 100%.

[2] = test system: HEK293 cells; assay: Luciferase assay for transfection efficiency in HEK293 cells; format: cell-based; details: at different concentrations (50-300 ng mRNA/well)
Protocol: HEK293 cells were cultured in DMEM high glucose with Glutamax (Gibco—Thermo Fisher #61965-059) supplemented with 10% of Fetal Bovine Serum (Hyclone #SV30160.03HI, provided by GE Healthcare Europe GmbH) and 1% penicillin/streptomycin. Transfections were carried out on 96-well plates containing 30000 cells/well in a final volume of 100 μl, and cells were incubated 24 hours at 37° C. and 5% CO2. After 24 h from cell seeding, the medium was removed and refreshed with 90 μl of complete medium. 10 μl of each LNPs formulation were added to the cells. After 24 hours cells were recovered and processed.
After 24 h post-incubation with the LNPs formulation, 100 μl of BrightGlo reagent (Promega #E2620) was added in each well following manufacturer instructions. After 5 minutes of incubation at room temperature luciferase activity was measured using VictorNivo (PerkinElmer). Data was represented as luminescence relative to the percentage of transfection relative to the positive control of transfection. […]

C14-PGA(Diol) [Lipo-PAA1]
transfection efficiency relative to the gold standard Lipofectamine [1]: 2.5 fold

C14-PSar [C14PSar]
transfection efficiency relative to the commercial standard DMG-PEG [2]: comparable transfection to DMG-PEG

— patent publication US20260256704A1, “STEALTH-STABILIZED LIPO-POLYAMINO ACIDS” (POLYPEPTIDE THERAPEUTIC SOLUTIONS, S.L., priority 2022, published 2026)
